Laboratory results as given in PMC7419507, “In vitro Cas9-assisted editing of modular polyketide synthase genes to produce desired natural product derivatives” (Nature Communications, 2020).
Where “and” joins values, the source holds several entries; their conditions need not be identical. Identical values can stand only once.

Legend:
T lymphoma Jurkat cells = test: Cytotoxicity assay (CellTiter-Glo, 72 h), Jurkat; format: cell-based; details: conc 50 uM, raw data (replicates)
Protocol: (§1) Jurkat cells were cultured in RPMI1640 medium supplemented with 10% foetal bovine serum, penicillin (50 U/ml), streptomycin (50 μg/ml), and Glutamax. SKOV-3 cells were cultured in DMEM medium supplemented with 10% fetal bovine serum, penicillin (50 U/ml), and streptomycin (50 μg/ml). MESO-1 cells were cultured in RPMI1640 medium supplemented with 10% fetal bovine serum, penicillin (50 U/ml), and streptomycin (50 μg/ml). All cell lines were seeded in a 384-well plate at a density of 1000 cells/well in 20 μl of media and incubated at 37 °C in a humidified incubator with 5% CO2. After 4 h, 2-fold dilution samples resolved in DMSO were added to the cell culture at the concentration of 0.5% (0.1 μl) and incubated for 72 h. Cell viabilities were measured using a CellTiter-Glo luminescent cell viability assay and EnVision multilabel plate reader.

[1] = Cytotoxicity assay (CellTiter-Glo, 72 h), Jurkat; format: cell-based; details: human, Jurkat cells (T lymphoma)
Protocol: as §1

[2] = Cytotoxicity assay (CellTiter-Glo, 72 h), SKOV-3; format: cell-based, human; details: human
Protocol: as §1

[3] = test system: human ovarian adenocarcinoma SKOV-3 cells; test: Cytotoxicity assay (CellTiter-Glo, 72 h), SKOV-3; format: cell-based; details: raw replicate data
Protocol: as §1

CO[C@H]1C[C@@H]2CC[C@@H](C)[C@@](O)(O2)C(=O)C(=O)N2CCCC[C@H]2C(=O)O[C@H]([C@H](C)C[C@@H]2CC[C@@H](O)[C@H](OC)C2)CC(=O)[C@H](C)/C=C(\C)[C@@H](O)[C@@H](OC)C(=O)[C@H](C)C[C@H](C)/C=C/C=C/C=C/1C [Compound 1, rapamycin, reference compound]
Jurkat viability (%) (T lymphoma Jurkat cells): 0.5% and 0.178% and 0.2% | viability at 72 h ([1]; 72 h, read-out: Plateau level of cell viability in the dose-response curve): ~25% | viability at 72 h, 9.53674e-05 uM ([1]; conc 9.53674e-5 uM, raw data (replicates)): 51.5% | viability at 72 h, 0.000190735 uM ([1]; conc 0.000190735 uM, raw data (replicates)): 40.1% | viability at 72 h, 0.00038147 uM ([1]; conc 0.00038147 uM, raw data (replicates)): 41% | viability at 72 h, 0.000762939 uM ([1]; conc 0.000762939 uM, raw data (replicates)): 32.5% | viability at 72 h, 0.00152588 uM ([1]; conc 0.00152588 uM, raw data (replicates)): 100% | viability at 72 h, 0.00305176 uM ([1]; conc 0.00305176 uM, raw data (replicates)): 41.9% | viability at 72 h, 0.00610352 uM ([1]; conc 0.00610352 uM, raw data (replicates)): 30.7% | viability at 72 h, 0.012207 uM ([1]; conc 0.012207 uM, raw data (replicates)): 28.3% | viability at 72 h, 0.0244141 uM ([1]; conc 0.0244141 uM, raw data (replicates)): 25.3% | viability at 72 h, 0.0488281 uM ([1]; conc 0.0488281 uM, raw data (replicates)): 24.5% | viability at 72 h, 0.0976562 uM ([1]; conc 0.0976562 uM, raw data (replicates)): 24% | viability at 72 h, 0.195312 uM ([1]; conc 0.195312 uM, raw data (replicates)): 24.4% | viability at 72 h, 0.390625 uM ([1]; conc 0.390625 uM, raw data (replicates)): 23.8% | viability at 72 h, 0.78125 uM ([1]; conc 0.78125 uM, raw data (replicates)): 23.7% | viability at 72 h, 1.5625 uM ([1]; conc 1.5625 uM, raw data (replicates)): 23.8% | viability at 72 h, 3.125 uM ([1]; conc 3.125 uM, raw data (replicates)): 23.9% | viability at 72 h, 6.25 uM ([1]; conc 6.25 uM, raw data (replicates)): 20.6% | viability at 72 h, 12.5 uM ([1]; conc 12.5 uM, raw data (replicates)): 18.3% | viability at 72 h, 25 uM ([1]; conc 25 uM, raw data (replicates)): 7.7% | viability at 72 h ([2]; SKOV-3 cells (ovarian adenocarcinoma), SKOV-3 cells, 72 h, read-out: Plateau level of cell viability in the dose-response curve): ~60% | viability at 72 h, 9.53674e-05 uM ([2]; SKOV-3 cells (ovarian adenocarcinoma), conc 9.53674e-5 uM, raw replicate data, read-out: SKOV3 viability (%)): 78.7% | viability at 72 h, 0.000190735 uM ([2]; SKOV-3 cells (ovarian adenocarcinoma), conc 0.000190735 uM, raw replicate data, read-out: SKOV3 viability (%)): 70.9% | viability at 72 h, 0.00038147 uM ([2]; SKOV-3 cells (ovarian adenocarcinoma), conc 0.00038147 uM, raw replicate data, read-out: SKOV3 viability (%)): 75.1% | viability at 72 h, 0.000762939 uM ([2]; SKOV-3 cells (ovarian adenocarcinoma), conc 0.000762939 uM, raw replicate data, read-out: SKOV3 viability (%)): 62.9% | viability at 72 h, 0.00152588 uM ([2]; SKOV-3 cells (ovarian adenocarcinoma), conc 0.00152588 uM, raw replicate data, read-out: SKOV3 viability (%)): 110% | viability at 72 h, 0.00305176 uM ([2]; SKOV-3 cells (ovarian adenocarcinoma), conc 0.00305176 uM, raw replicate data, read-out: SKOV3 viability (%)): 70.7% | viability at 72 h, 0.00610352 uM ([2]; SKOV-3 cells (ovarian adenocarcinoma), conc 0.00610352 uM, raw replicate data, read-out: SKOV3 viability (%)): 64.7% | viability at 72 h, 0.012207 uM ([2]; SKOV-3 cells (ovarian adenocarcinoma), conc 0.012207 uM, raw replicate data, read-out: SKOV3 viability (%)): 59.4% | viability at 72 h, 0.0244141 uM ([2]; SKOV-3 cells (ovarian adenocarcinoma), conc 0.0244141 uM, raw replicate data, read-out: SKOV3 viability (%)): 57.9% | viability at 72 h, 0.0488281 uM ([2]; SKOV-3 cells (ovarian adenocarcinoma), conc 0.0488281 uM, raw replicate data, read-out: SKOV3 viability (%)): 61.1% | viability at 72 h, 0.0976562 uM ([2]; SKOV-3 cells (ovarian adenocarcinoma), conc 0.0976562 uM, raw replicate data, read-out: SKOV3 viability (%)): 61.7% | viability at 72 h, 0.195312 uM ([2]; SKOV-3 cells (ovarian adenocarcinoma), conc 0.195312 uM, raw replicate data, read-out: SKOV3 viability (%)): 59.4% | viability at 72 h, 0.390625 uM ([2]; SKOV-3 cells (ovarian adenocarcinoma), conc 0.390625 uM, raw replicate data, read-out: SKOV3 viability (%)): 59.7% | viability at 72 h, 12.5 uM ([2]; SKOV-3 cells (ovarian adenocarcinoma), conc 12.5 uM, raw replicate data, read-out: SKOV3 viability (%)): 57.5% | viability at 72 h, 25 uM ([2]; SKOV-3 cells (ovarian adenocarcinoma), conc 25 uM, raw replicate data, read-out: SKOV3 viability (%)): 54.8% | viability at 72 h, 0.78125 uM ([2]; SKOV-3 ovarian adenocarcinoma cells, conc 0.78125 uM, raw replicate data, read-out: SKOV3 viability (%)): 55.3% | viability at 72 h, 1.5625 uM ([2]; SKOV-3 ovarian adenocarcinoma cells, conc 1.5625 uM, raw replicate data, read-out: SKOV3 viability (%)): 58.8% | viability at 72 h, 3.125 uM ([2]; SKOV-3 ovarian adenocarcinoma cells, conc 3.125 uM, raw replicate data, read-out: SKOV3 viability (%)): 57.4% | viability at 72 h, 6.25 uM ([2]; SKOV-3 ovarian adenocarcinoma cells, conc 6.25 uM, raw replicate data, read-out: SKOV3 viability (%)): 63.1% | SKOV3 viability (%) ([3]; conc 9.53674e-5 uM): 85.5% and 83.5% | SKOV3 viability (%) ([3]; conc 0.000190735 uM): 77.8% | SKOV3 viability (%) ([3]; conc 0.00038147 uM): 76.1% and 77.6% | SKOV3 viability (%) ([3]; conc 0.000762939 uM): 63.5% and 66.3% | SKOV3 viability (%) ([3]; conc 0.00152588 uM): 104.6% and 106.1% | SKOV3 viability (%) ([3]; conc 0.00305176 uM): 68.3% and 63.8% | SKOV3 viability (%) ([3]; conc 0.00610352 uM): 65.9% | SKOV3 viability (%) ([3]; conc 0.012207 uM): 65.2% and 58.2% | SKOV3 viability (%) ([3]; conc 0.0244141 uM): 61.9% and 60.6% | SKOV3 viability (%) ([3]; conc 0.0488281 uM): 65.4% and 58.1% | SKOV3 viability (%) ([3]; conc 0.0976562 uM): 60.9% and 62.0% | SKOV3 viability (%) ([3]; conc 0.195312 uM): 60.7% and 56.3% | SKOV3 viability (%) ([3]; conc 0.390625 uM): 59.9% and 61.0% | SKOV3 viability (%) ([3]; conc 0.78125 uM): 54.1% and 58.4% | SKOV3 viability (%) ([3]; conc 1.5625 uM): 63.0% | SKOV3 viability (%) ([3]; conc 3.125 uM): 54.7% | SKOV3 viability (%) ([3]; conc 6.25 uM): 63.2% | SKOV3 viability (%) ([3]; conc 12.5 uM): 56.9% | SKOV3 viability (%) ([3]; conc 25 uM): 55.5% | SKOV3 viability (%) ([3]; conc 50 uM): 16.3% and 24.9% and 9.3%
